From publication PMC9120017, “Inhibition mechanism of the chloride channel TMEM16A by the pore blocker 1PBC” (Nature Communications, 2022)
Where two headings read alike, the source gives them in different places.

Biological target: T1, mouse TMEM16A mutant Q637A (Mus musculus, UniProt Q8BHY3, Q637A)
T1 construct: expressed in transfected cells; host or cells: HEK293T
T1 sequence (Q8BHY3 1-960 Q637A): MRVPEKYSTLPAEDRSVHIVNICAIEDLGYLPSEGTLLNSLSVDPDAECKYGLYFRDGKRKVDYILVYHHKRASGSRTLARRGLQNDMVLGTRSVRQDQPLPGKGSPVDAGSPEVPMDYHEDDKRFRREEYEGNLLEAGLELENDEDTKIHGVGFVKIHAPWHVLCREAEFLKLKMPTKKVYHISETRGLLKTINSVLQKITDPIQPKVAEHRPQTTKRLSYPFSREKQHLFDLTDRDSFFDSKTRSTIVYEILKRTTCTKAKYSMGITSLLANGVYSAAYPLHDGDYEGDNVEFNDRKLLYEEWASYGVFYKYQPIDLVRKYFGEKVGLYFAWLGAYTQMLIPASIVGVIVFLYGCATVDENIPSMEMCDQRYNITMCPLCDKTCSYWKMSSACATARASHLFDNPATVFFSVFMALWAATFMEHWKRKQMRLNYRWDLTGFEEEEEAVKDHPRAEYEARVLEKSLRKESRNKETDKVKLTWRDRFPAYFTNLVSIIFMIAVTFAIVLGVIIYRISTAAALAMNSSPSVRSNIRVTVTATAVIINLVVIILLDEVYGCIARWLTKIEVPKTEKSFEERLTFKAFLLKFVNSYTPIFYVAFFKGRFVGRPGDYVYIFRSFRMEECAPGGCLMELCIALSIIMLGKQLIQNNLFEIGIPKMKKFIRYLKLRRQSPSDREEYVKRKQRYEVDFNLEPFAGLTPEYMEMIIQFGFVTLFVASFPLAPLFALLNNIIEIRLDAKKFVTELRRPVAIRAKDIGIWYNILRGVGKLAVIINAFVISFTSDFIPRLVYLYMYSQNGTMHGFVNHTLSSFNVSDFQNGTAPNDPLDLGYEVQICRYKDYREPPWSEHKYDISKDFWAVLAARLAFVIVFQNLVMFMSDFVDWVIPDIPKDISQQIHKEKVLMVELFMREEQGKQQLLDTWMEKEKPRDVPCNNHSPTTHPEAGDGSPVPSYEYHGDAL
Assay: Inside-out patch recording of 1PBC block, mutant Q637A
Format: cell-based
Details: for remaining activity at 1 µM: 1PBC conc 1; for remaining activity at 1 µM / remaining activity at 3 µM / remaining activity at 10 µM / remaining activity at 30 µM: read-out: relative current in 1PBC (avr); for remaining activity at 3 µM: 1PBC conc 3; for remaining activity at 10 µM: 1PBC conc 10; for remaining activity at 30 µM: 1PBC conc 30
Method: HEK293T cells (ATCC CRL-1573) were maintained in Dulbecco’s modified Eagle’s medium (DMEM; Sigma-Aldrich) supplemented with 10 U ml^−1 penicillin, 0.1 mg ml^−1 streptomycin (Sigma-Aldrich), 2 mM L-glutamine (Sigma-Aldrich), and 10% FBS (Sigma-Aldrich) in a humidified atmosphere containing 5% CO2 at 37 °C. HEK293S GnTI^− cells (ATCC CRL-3022) were maintained in HyClone HyCell TransFx-H medium (GE Healthcare) supplemented with 10 U ml^−1 penicillin, 0.1 mg ml^−1 streptomycin, 4 mM L-glutamine, 0.15% poloxamer 188 (Sigma-Aldrich), and 1% FBS in an atmosphere containing 5% CO2 at 185 rpm at 37 °C. The ac splice variant of mouse TMEM16A (UniProt ID: Q8BHY3), mouse TMEM16B (UniProt ID: Q8CFW1), or mouse TMEM16F (UniProt ID: Q6P9J9) bearing a 3C cleavage site, a Venus YFP, a Myc tag, and a Streptavidin-binding peptide (SBP) downstream of the open reading frame in a modified pcDNA3.1 vector (Invitrogen) were used as described previously[21],[31]. Mutations were introduced using a modified QuikChange method[58] and were verified by sequencing.
HEK293T cells were transfected with 3–4 μg DNA per 6 cm Petri dish using the calcium phosphate co-precipitation method and were used within 24–96 h after transfection. Recordings were performed on inside-out patches excised from HEK293T cells expressing the construct of interest. Patch pipettes were pulled from borosilicate glass capillaries (O.D. 1.5 mm, I.D. 0.86 mm, Sutter Instrument) and were fire-polished with a microforge (Narishige) before use. Pipette resistance was typically 3–8 MΩ when filled with the recording solutions detailed below. Seal resistance was typically 4 GΩ or higher. Voltage-clamp recordings were made using Axopatch 200B, Digidata 1550, and Clampex 10.7 (Molecular Devices). Analog signals were filtered with the in-built 4-pole Bessel filter at 10 kHz and were digitized at 20 kHz. Solution exchange was achieved using a gravity-fed system through a theta glass pipette mounted on an ultra-fast piezo-driven stepper (Siskiyou). […] All recordings were performed at 20 °C.
A symmetrical ionic condition was used throughout. Stock solution with Ca^2+-EGTA contained 150 mM NaCl, 5.99 mM Ca(OH)2, 5 mM EGTA, and 10 mM HEPES at pH 7.40. Stock solution with EGTA contained 150 mM NaCl, 5 mM EGTA, and 10 mM HEPES at pH 7.40. Free Ca^2+ concentrations were adjusted by mixing the stock solutions at the required ratios calculated using the WEBMAXC program (http://web.stanford.edu/~cpatton/webmaxcS.htm). Patch pipettes were filled with the stock solution with Ca^2+-EGTA, which has a free Ca^2+ concentration of 1 mM. 1PBC (ChemBridge) stock was reconstituted in anhydrous DMSO (Sigma-Aldrich) at 100 mM and stored at −20 °C. Working solutions with 1PBC were prepared by serial dilution. Unless otherwise stated, experiments were performed at a saturating Ca^2+ concentration as shown in Supplementary Table 1 and the primary data were corrected for current rundown as described previously[21],[25].
Concentration-response relations, obtained from the ratio of the I-V plots before and after the application of the blocker, were fitted to the Hill equation,1 I/Imax=1/1+IC50/[blocker]^h where I/Imax is the normalized current responses, IC50 defines the concentration at which inhibition is at its half-maximum, and h is the Hill coefficient.

SMILES: N#Cc1c(C(F)(F)F)cc(O)n2c1nc1ccccc12 [1PBC]
- IC50 (0 mV, 2 µM Ca2+): 1820 nM
- remaining activity at 1 µM (0 mV): 65.8%
- remaining activity at 3 µM (0 mV): 36.3%
- remaining activity at 10 µM (0 mV): 15.5%
- remaining activity at 30 µM (0 mV): 6.35%
- IC50 (20 mV, 2 µM Ca2+): 1400 nM
- remaining activity at 1 µM (20 mV): 59.7%
- remaining activity at 3 µM (20 mV): 30.3%
- remaining activity at 10 µM (20 mV): 12.3%
- remaining activity at 30 µM (20 mV): 4.62%
- IC50 (40 mV, 2 µM Ca2+): 1150 nM
- remaining activity at 1 µM (40 mV): 54.8%
- remaining activity at 3 µM (40 mV): 26.2%
- remaining activity at 10 µM (40 mV): 10.3%
- remaining activity at 30 µM (40 mV): 3.87%
- IC50 (60 mV, 2 µM Ca2+): 956 nM
- remaining activity at 1 µM (60 mV): 49.7%
- remaining activity at 3 µM (60 mV): 22.8%
- remaining activity at 10 µM (60 mV): 9%
- remaining activity at 30 µM (60 mV): 3.77%
- log-fold IC50 (change of mutant vs WT) (80 mV): -0.3333
- IC50 (80 mV, 2 µM Ca2+): 880 nM
- remaining activity at 1 µM (80 mV): 47.5%
- remaining activity at 3 µM (80 mV): 21%
- remaining activity at 10 µM (80 mV): 9.17%
- remaining activity at 30 µM (80 mV): 3.99%
- IC50 (100 mV, 2 µM Ca2+): 898 nM
- remaining activity at 1 µM (100 mV): 48.7%
- remaining activity at 3 µM (100 mV): 20.5%
- remaining activity at 10 µM (100 mV): 9.32%
- remaining activity at 30 µM (100 mV): 4.29%
- IC50 (120 mV, 2 µM Ca2+): 985 nM
- remaining activity at 1 µM (120 mV): 50.9%
- remaining activity at 3 µM (120 mV): 22%
- remaining activity at 10 µM (120 mV): 10.5%
- remaining activity at 30 µM (120 mV): 5.23%
- IC50 (140 mV, 2 µM Ca2+): 1170 nM
- remaining activity at 1 µM (140 mV): 55.6%
- remaining activity at 3 µM (140 mV): 24.7%
- remaining activity at 10 µM (140 mV): 12.4%
- remaining activity at 30 µM (140 mV): 6.82%
- IC50 (-20 mV, 2 µM Ca2+): 2340 nM
- remaining activity at 1 µM (-20 mV): 71.8%
- remaining activity at 3 µM (-20 mV): 42.4%
- remaining activity at 10 µM (-20 mV): 18.6%
- remaining activity at 30 µM (-20 mV): 8.09%
- IC50 (-40 mV, 2 µM Ca2+): 3080 nM
- remaining activity at 1 µM (-40 mV): 76.6%
- remaining activity at 3 µM (-40 mV): 49.5%
- remaining activity at 10 µM (-40 mV): 23.3%
- remaining activity at 30 µM (-40 mV): 10.7%
- IC50 (-60 mV, 2 µM Ca2+): 4040 nM
- remaining activity at 1 µM (-60 mV): 81.3%
- remaining activity at 3 µM (-60 mV): 56.4%
- remaining activity at 10 µM (-60 mV): 28.3%
- remaining activity at 30 µM (-60 mV): 13.4%
- IC50 (-80 mV, 2 µM Ca2+): 5190 nM
- remaining activity at 1 µM (-80 mV): 84.8%
- remaining activity at 3 µM (-80 mV): 62.7%
- remaining activity at 10 µM (-80 mV): 33.3%
- remaining activity at 30 µM (-80 mV): 16.6%
- IC50 (-100 mV, 2 µM Ca2+): 6660 nM
- remaining activity at 1 µM (-100 mV): 87.3%
- remaining activity at 3 µM (-100 mV): 68.5%
- remaining activity at 10 µM (-100 mV): 38.7%
- remaining activity at 30 µM (-100 mV): 20.5%
- IC50 (-120 mV, 2 µM Ca2+): 8290 nM
- remaining activity at 1 µM (-120 mV): 88.8%
- remaining activity at 3 µM (-120 mV): 72.5%
- remaining activity at 10 µM (-120 mV): 44.2%
- remaining activity at 30 µM (-120 mV): 24.7%
- IC50 (-140 mV, 2 µM Ca2+): 10200 nM
- remaining activity at 1 µM (-140 mV): 89.3%
- remaining activity at 3 µM (-140 mV): 76.3%
- remaining activity at 10 µM (-140 mV): 49.3%
- remaining activity at 30 µM (-140 mV): 28.8%
- IC50 (Q637A, V 0 mV): 1820 nM
- IC50 (Q637A, V 20 mV): 1400 nM
- IC50 (Q637A, V 40 mV): 1150 nM
- IC50 (Q637A, V 60 mV): 956 nM
- IC50 (Q637A, V 80 mV): 880 nM
- IC50 (Q637A, V 100 mV): 898 nM
- IC50 (Q637A, V 120 mV): 985 nM
- IC50 (Q637A, V 140 mV): 1170 nM
- IC50 (Q637A, V -20 mV): 2340 nM
- IC50 (Q637A, V -40 mV): 3080 nM
- IC50 (Q637A, V -60 mV): 4040 nM
- IC50 (Q637A, V -80 mV): 5190 nM
- IC50 (Q637A, V -100 mV): 6660 nM
- IC50 (Q637A, V -120 mV): 8290 nM
- IC50 (Q637A, V -140 mV): 10200 nM
